Measured values published in patent US20230406885A1, “CYCLIC PEPTIDES FOR TRAPPING INTERLEUKIN-1 BETA” (MERCK SHARP & DOHME LLC, priority 2022, published 2023).
pIC50: −log10 of the molar value. *1 amine or outer side, *2 acyl side, *3 side chain or, on linkers, in order; H or OH if unused. Where a SMILES comes first, the peptide text is derived from it. [ ]: non-standard residue; d: D form. Trp(βS-Me,4-F) = C[C@@H](c1c[nH]c2cccc(F)c12)[C@H](N)C(=O)O; Bip(4'-COOH) = N[C@@H](Cc1ccc(-c2ccc(C(=O)O)cc2)cc1)C(=O)O; X2 = O=C(O)c1ccc(-c2ccc(C[C@H](N[*:1])C(=O)[*:2])cn2)cc1; X1 = CC(=O)N1CCN(c2ccc(C[C@H](N[*:1])C(=O)[*:2])cn2)CC1; 1Nal(3S-Me) = C[C@@H](c1cccc2ccccc12)[C@H](N)C(=O)O; X12 = CC(=O)NCCOc1ccc(C[C@H](N[*:1])C(=O)[*:2])cn1; Phe(4-COOH) = N[C@@H](Cc1ccc(C(=O)O)cc1)C(=O)O; h3Pal(5-CN) = N#Cc1cncc(CC[C@H](N)C(=O)O)c1; Pro(4R-NH2) = N[C@H]1CN[C@H](C(=O)O)C1; hTyr = N[C@@H](CCc1ccc(O)cc1)C(=O)O; 4Pal = N[C@@H](Cc1ccncc1)C(=O)O; dDab = NCC[C@@H](N)C(=O)O; dNMeA = CN[C@H](C)C(=O)O; Dap = NC[C@H](N)C(=O)O

What follows are molecules tested against T1, Recombinant human IL-1β (Homo sapiens, UniProt P01584) (assay: IL-6 assay in MRC5 cells: inhibition of IL-1β induced IL-6 secretion (AlphaLISA)). Details: inhibition of IL-1β induced IL-6 secretion in MRC5 cells; IL-1β pre-incubated 1 hour with compound; read-out: MRC5 IC50.
T1 construct: purchased BioLegend 579404
Type: cell-based
Experimental: Procedure for IL-6 Assay in MRC5 Cells
The inhibition of IL-1β induced IL-6 secretion was evaluated in MRC5 cells. Recombinant human IL-1β (BioLegend 579404) at 2×EC80 concentration was prepared in seeding medium, EMEM (ATCC 30-2003) with 0.025% BSA (Sigma A9576), 1× penicillin/streptomycin (Gibco 15070-063), 1×NEAA (Gibco 11140-050), 1× GlutaMax (Gibco 35050-061), and 1× sodium pyruvate (Gibco 11360-070). 20 μL of IL-1β was added to a 384-well collagen-coated plate (Corning 354664) and pre-incubated at ambient temperature for 1 hour with 200 nL of compound dispensed using an ECHO 555 liquid handler. Human lung fibroblast MRC5 cells (ATCC CCL-171) were added at a density of 3000 cells/20 μL per well. The cells were prepared by passaging three times in growth medium, EMEM (ATCC 30-2003) with 10% fetal bovine serum (Gibco 16140-071), 1× penicillin/streptomycin (Gibco 15070-063), 1×NEAA (Gibco 11140-050), 1× GlutaMax (Gibco 35050-061), and 1× sodium pyruvate (Gibco 11360-070) in collagen-coated T175 flasks (Greiner 661950) and harvested in seeding medium after 5 minutes of 0.25% trypsin-EDTA (Gibco 25200-056) digestion. The 384-well collagen-coated plate, containing a final volume of 40 μL, was incubated at 37° C., 5% CO2 overnight. 5 μL of the conditioned medium was transferred to a 384-well AlphaLISA plate (PerkinElmer 6005350) for detection of IL-6 using the human AlphaLISA IL-6 kit (PerkinElmer AL223F) as per the manufacturer's protocol. 20 μL of the acceptor bead/biotinylated antibody mix was added to the 384-well AlphaLISA plate and incubated for 1 hour at ambient temperature. The donor bead mix was protected from light and 25 μL was added to the plate and incubated for 30 minutes at ambient temperature. The AlphaLISA plate was read on an EnVision multimode plate reader (Perkin Elmer model 2104) using the AlphaScreen setting (laser exc at 680 nm and emis at 570 nm). Dose response curves and IC50 values were analyzed using a 4-parameter logistic equation in Spotfire software (Tibco, Palo Alto, CA).

T1 sequence (P01584 117-269): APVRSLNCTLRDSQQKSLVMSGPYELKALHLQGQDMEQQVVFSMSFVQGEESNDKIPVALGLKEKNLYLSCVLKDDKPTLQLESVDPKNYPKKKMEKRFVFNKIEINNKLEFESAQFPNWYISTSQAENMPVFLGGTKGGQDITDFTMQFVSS

SMILES | pIC50
CC(=O)N1CCN(c2ccc(C[C@@H]3NC(=O)[C@H](CCc4ccc(O)cc4)NC(=O)[C@@H](C)NC(=O)[C@H](CC(C)C)NC(=O)[C@H](CCCCN)NC(=O)[C@H](Cc4ccc(-c5ccc(C(=O)O)cc5)cc4)NC(=O)CNC(=O)[C@@H](C)N(C)C(=O)[C@H](CC(=O)O)NC(=O)[C@H]([C@@H](C)c4cccc5ccccc45)NC(=O)[C@@H]4C[C@@H](N)CN4C(=O)CNC(=O)[C@H](Cc4ccc(C(=O)O)cc4)NC(=O)[C@H](Cc4c[nH]c5ccccc45)NC3=O)cn2)CC1 [Example 3] (cyclo([X1]W[Phe(4-COOH)]G[Pro(4R-NH2)][1Nal(3S-Me)]D[dNMeA]G[Bip(4'-COOH)]KL[dA][hTyr])) | 10.22
CC(=O)N1CCN(c2ccc(C[C@@H]3NC(=O)[C@H](CCc4cncc(C#N)c4)NC(=O)[C@@H](C)NC(=O)[C@H](CN)NC(=O)[C@H](Cc4c[nH]c5ccccc45)NC(=O)[C@H](Cc4ccc(-c5ccc(C(=O)O)cc5)cc4)NC(=O)CNC(=O)[C@@H](C)N(C)C(=O)[C@H](CC(=O)O)NC(=O)[C@H]([C@@H](C)c4cccc5ccccc45)NC(=O)[C@@H]4C[C@@H](N)CN4C(=O)CNC(=O)[C@H](Cc4ccc(C(=O)O)cc4)NC(=O)[C@H](Cc4c[nH]c5ccccc45)NC3=O)cn2)CC1 [Example 4] (cyclo([X1]W[Phe(4-COOH)]G[Pro(4R-NH2)][1Nal(3S-Me)]D[dNMeA]G[Bip(4'-COOH)]W[Dap][dA][h3Pal(5-CN)])) | 10.36
CC(=O)N1CCN(c2ccc(C[C@@H]3NC(=O)[C@H](CCc4ccc(O)cc4)NC(=O)[C@@H](C)NC(=O)[C@H](CN)NC(=O)[C@H](Cc4c[nH]c5ccccc45)NC(=O)[C@H](Cc4ccc(-c5ccc(C(=O)O)cc5)cc4)NC(=O)CNC(=O)[C@@H](C)N(C)C(=O)[C@H](CC(=O)O)NC(=O)[C@H]([C@@H](C)c4cccc5ccccc45)NC(=O)[C@@H]4C[C@@H](N)CN4C(=O)CNC(=O)[C@H](Cc4ccc(C(=O)O)cc4)NC(=O)[C@H](Cc4c[nH]c5ccccc45)NC3=O)cn2)CC1 [Example 5] (cyclo([X1]W[Phe(4-COOH)]G[Pro(4R-NH2)][1Nal(3S-Me)]D[dNMeA]G[Bip(4'-COOH)]W[Dap][dA][hTyr])) | 9.17
CC(=O)N1CCN(c2ccc(C[C@@H]3NC(=O)[C@H](CCc4ccc(O)cc4)NC(=O)[C@@H](CCN)NC(=O)[C@H](CC(C)C)NC(=O)[C@H](CCCCN)NC(=O)[C@H](Cc4ccc(-c5ccc(C(=O)O)cc5)cc4)NC(=O)CNC(=O)[C@@H](C)N(C)C(=O)[C@H](CC(=O)O)NC(=O)[C@H]([C@@H](C)c4c[nH]c5cccc(F)c45)NC(=O)[C@@H]4C[C@@H](N)CN4C(=O)CNC(=O)[C@H](Cc4ccc(C(=O)O)cc4)NC(=O)[C@H](Cc4c[nH]c5ccccc45)NC3=O)cn2)CC1 [Example 7] (cyclo([X1]W[Phe(4-COOH)]G[Pro(4R-NH2)][Trp(βS-Me,4-F)]D[dNMeA]G[Bip(4'-COOH)]KL[dDab][hTyr])) | 9.87
C[C@@H]1C(=O)NCC(=O)N[C@@H](Cc2ccc(-c3ccc(C(=O)O)cc3)nc2)C(=O)N[C@@H](Cc2c[nH]c3ccccc23)C(=O)N[C@@H](CN)C(=O)N[C@H](C)C(=O)N[C@@H](CCc2ccc(O)cc2)C(=O)N[C@@H](Cc2ccc(-c3ccc(C(=O)O)cc3)nc2)C(=O)N[C@@H](Cc2c[nH]c3ccccc23)C(=O)N[C@@H](Cc2ccc(C(=O)O)cc2)C(=O)NCC(=O)N2C[C@H](N)C[C@H]2C(=O)N[C@@H]([C@@H](C)c2cccc3ccccc23)C(=O)N[C@@H](CC(=O)O)C(=O)N1C [Example 10] (cyclo([X2]W[Phe(4-COOH)]G[Pro(4R-NH2)][1Nal(3S-Me)]D[dNMeA]G[X2]W[Dap][dA][hTyr])) | 9.59

More lines, now with the values ahead:

pIC50 | SMILES
10.44 | CC(=O)N1CCN(c2ccc(C[C@@H]3NC(=O)[C@H](CCc4cncc(C#N)c4)NC(=O)[C@@H](C)NC(=O)[C@H](CN)NC(=O)[C@H](Cc4ccncc4)NC(=O)[C@H](Cc4ccc(-c5ccc(C(=O)O)cc5)cc4)NC(=O)CNC(=O)[C@@H](C)N(C)C(=O)[C@H](CC(=O)O)NC(=O)[C@H]([C@@H](C)c4cccc5ccccc45)NC(=O)[C@@H]4C[C@@H](N)CN4C(=O)CNC(=O)[C@H](Cc4ccc(C(=O)O)cc4)NC(=O)[C@H](Cc4c[nH]c5ccccc45)NC3=O)cn2)CC1 [Example 1] (cyclo([X1]W[Phe(4-COOH)]G[Pro(4R-NH2)][1Nal(3S-Me)]D[dNMeA]G[Bip(4'-COOH)][4Pal][Dap][dA][h3Pal(5-CN)]))
10.66 | CC(=O)N1CCN(c2ccc(C[C@@H]3NC(=O)[C@H](CCc4cncc(C#N)c4)NC(=O)[C@@H](C)NC(=O)[C@H](CC(C)C)NC(=O)[C@H](CCCCN)NC(=O)[C@H](Cc4ccc(-c5ccc(C(=O)O)cc5)cc4)NC(=O)CNC(=O)[C@@H](C)N(C)C(=O)[C@H](CC(=O)O)NC(=O)[C@H]([C@@H](C)c4cccc5ccccc45)NC(=O)[C@@H]4C[C@@H](N)CN4C(=O)CNC(=O)[C@H](Cc4ccc(C(=O)O)cc4)NC(=O)[C@H](Cc4c[nH]c5ccccc45)NC3=O)cn2)CC1 [Example 2] (cyclo([X1]W[Phe(4-COOH)]G[Pro(4R-NH2)][1Nal(3S-Me)]D[dNMeA]G[Bip(4'-COOH)]KL[dA][h3Pal(5-CN)]))
10.18 | CC(=O)N1CCN(c2ccc(C[C@@H]3NC(=O)[C@H](CCc4ccc(O)cc4)NC(=O)[C@@H](C)NC(=O)[C@H](CC(C)C)NC(=O)[C@H](CCCCN)NC(=O)[C@H](Cc4ccc(-c5ccc(C(=O)O)cc5)cc4)NC(=O)CNC(=O)[C@@H](C)N(C)C(=O)[C@H](CC(=O)O)NC(=O)[C@H]([C@@H](C)c4c[nH]c5cccc(F)c45)NC(=O)[C@@H]4C[C@@H](N)CN4C(=O)CNC(=O)[C@H](Cc4ccc(C(=O)O)cc4)NC(=O)[C@H](Cc4c[nH]c5ccccc45)NC3=O)cn2)CC1 [Example 6] (cyclo([X1]W[Phe(4-COOH)]G[Pro(4R-NH2)][Trp(βS-Me,4-F)]D[dNMeA]G[Bip(4'-COOH)]KL[dA][hTyr]))
9.85 | CC(=O)N1CCN(c2ccc(C[C@@H]3NC(=O)[C@H](CCc4ccc(O)cc4)NC(=O)[C@@H](CCN)NC(=O)CNC(=O)[C@H](Cc4c[nH]c5ccccc45)NC(=O)[C@H](Cc4ccc(-c5ccc(C(=O)O)cc5)cc4)NC(=O)CNC(=O)[C@@H](C)N(C)C(=O)[C@H](CC(=O)O)NC(=O)[C@H]([C@@H](C)c4c[nH]c5cccc(F)c45)NC(=O)[C@@H]4C[C@@H](N)CN4C(=O)CNC(=O)[C@H](Cc4ccc(C(=O)O)cc4)NC(=O)[C@H](Cc4c[nH]c5ccccc45)NC3=O)cn2)CC1 [Example 8] (cyclo([X1]W[Phe(4-COOH)]G[Pro(4R-NH2)][Trp(βS-Me,4-F)]D[dNMeA]G[Bip(4'-COOH)]WG[dDab][hTyr]))
9.93 | CC(=O)NCCOc1ccc(C[C@@H]2NC(=O)[C@H](CCc3ccc(O)cc3)NC(=O)[C@@H](C)NC(=O)[C@H](CC(C)C)NC(=O)[C@H](CCCCN)NC(=O)[C@H](Cc3ccc(-c4ccc(C(=O)O)cc4)cc3)NC(=O)CNC(=O)[C@@H](C)N(C)C(=O)[C@H](CC(=O)O)NC(=O)[C@H]([C@@H](C)c3c[nH]c4cccc(F)c34)NC(=O)[C@@H]3C[C@@H](N)CN3C(=O)CNC(=O)[C@H](Cc3ccc(C(=O)O)cc3)NC(=O)[C@H](Cc3c[nH]c4ccccc34)NC2=O)cn1 [Example 9] (cyclo([X12]W[Phe(4-COOH)]G[Pro(4R-NH2)][Trp(βS-Me,4-F)]D[dNMeA]G[Bip(4'-COOH)]KL[dA][hTyr]))
